Test results published in ChEMBL document CHEMBL1201862, “PubChem BioAssay data set” (2004).
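Method: 48-hour compound exposure of cells in 96-well plates, five concentrations, linear interpolation of endpoints. Abbreviation: GI50, concentration required for 50% inhibition of growth.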 Calls of active or inactive are those of the source. Cut-off read from the data, not from the text of the source: active = GI50 up to about 1.1 µM and inactive = higher.

Legend:
Assay in all cases: NCI-60 cell line screen, 48 h
[1] = tested on: U-251
[2] = tested on: T47D
[3] = tested on: SF-295
[4] = tested on: UACC-257
[5] = tested on: HCC 2998
[6] = tested on: SF-539
[7] = tested on: HOP-92
[8] = tested on: MCF7
[9] = tested on: SK-MEL-28
[10] = tested on: MDA-MB-435
[11] = tested on: LOX IMVI
[12] = tested on: K562
[13] = tested on: SR
[14] = tested on: SW-620
[15] = tested on: IGROV-1
[16] = tested on: UACC-62
[17] = tested on: CCRF-CEM
[18] = tested on: SNB-75
[19] = tested on: 786-0
[20] = tested on: HOP-62
[21] = tested on: MDA-MB-231
[22] = tested on: SN12C
[23] = tested on: SK-MEL-5
[24] = tested on: EKVX
[25] = tested on: NCI-H23
[26] = tested on: HCT-15
[27] = tested on: PC-3
[28] = tested on: NCI-H460
[29] = tested on: HCT-116
[30] = tested on: UO-31
[31] = tested on: HL-60
[32] = tested on: Hs-578T
[33] = tested on: MOLT-4
[34] = tested on: OVCAR-5
[35] = tested on: NCI/ADR-RES
[36] = tested on: A498
[37] = tested on: RXF 393
[38] = tested on: DU-145
[39] = tested on: SNB-19
[40] = tested on: RPMI-8226
[41] = tested on: OVCAR-3
[42] = tested on: M14
[43] = tested on: OVCAR-4
[44] = tested on: BT-549
[45] = tested on: A549
[46] = tested on: CAKI-1
[47] = tested on: COLO 205
[48] = tested on: SK-OV-3
[49] = tested on: TK-10
[50] = tested on: SF-268
[51] = tested on: KM12
[52] = tested on: MDA-N
[53] = tested on: NCI-H522
[54] = tested on: HT-29
[55] = tested on: SK-MEL-2
[56] = tested on: Malme-3M
[57] = tested on: NCI-H226
[58] = tested on: OVCAR-8
[59] = tested on: ACHN

Measured: GI50

Clc1cccc(Cl)c1C1SCC2=Nc3ccccc3CN21 (stereo not given)
32 µM: [26]
inactive: [1] 33.2 µM | [2] 21.4 µM | [3] 13.2 µM | [4] 34.7 µM | [5] 29.6 µM | [6] 16.2 µM | [7] 40.7 µM | [8] 20.2 µM | [9] 23.3 µM | [10] 27.2 µM | [11] 19.1 µM | [12] 31.3 µM | [13] 34.1 µM | [14] 33.3 µM | [15] 22.9 µM | [16] 27.4 µM | [17] 32.4 µM | [18] 38.3 µM | [19] 13.2 µM | [20] 19.5 µM | [21] 42.9 µM | [22] 46.7 µM | [23] 15.8 µM | [24] 23.7 µM | [25] 14.6 µM | [27] 18.7 µM | [28] 19.5 µM | [29] 12.1 µM | [30] 17.3 µM | [31] 21.7 µM | [32] 24.8 µM | [33] 31.3 µM | [34] 41.5 µM | [35] 19.4 µM | [36] 71.8 µM | [37] 27.8 µM | [38] 25 µM | [39] 5.18 µM | [40] 17.1 µM | [41] 15 µM | [42] 18.4 µM | [43] 80.4 µM | [44] 66.4 µM | [45] 20.5 µM | [46] 60.3 µM | [47] 14.1 µM | [48] 20.6 µM | [49] > 100 µM | [50] 39.9 µM | [51] 20.8 µM | [52] 36.8 µM

Cc1ccc(C)c(/C(=N\N=C(N)N)C2CC2)c1
48.6 µM: [26]
inactive: [1] 17.4 µM | [2] 45.5 µM | [53] 28.6 µM | [3] 42.6 µM | [4] 31.6 µM | [5] 20.4 µM | [6] 32.3 µM | [54] 29.3 µM | [7] 47.2 µM | [8] 47.8 µM | [55] 50.8 µM | [9] 35 µM | [10] 22.8 µM | [11] 32.4 µM | [12] 20.5 µM | [13] 37.6 µM | [14] 33.1 µM | [15] 32.7 µM | [16] 35.6 µM | [18] 37.5 µM | [19] 37 µM | [20] 35.8 µM | [21] 63.4 µM | [22] 56 µM | [56] 41.5 µM | [57] 31.7 µM | [23] 36.2 µM | [24] 43.9 µM | [25] 20.7 µM | [27] 48.5 µM | [28] 18.1 µM | [29] 26.4 µM | [30] 59.8 µM | [32] 26.1 µM | [33] 35.2 µM | [34] 29.9 µM | [35] 58.1 µM | [36] 47.5 µM | [37] > 100 µM | [38] 58.9 µM | [58] 46.6 µM | [59] 42.7 µM | [39] 48.9 µM | [40] 28.8 µM | [41] 94.6 µM | [42] 39.6 µM | [43] > 100 µM | [44] 25.5 µM | [45] 43.3 µM | [46] > 100 µM | [47] 35.1 µM | [48] > 100 µM | [49] 34 µM | [50] 39.5 µM | [51] 39.9 µM | [52] 23.4 µM

C/C(=C/CC[C@]1(CO)CC[C@]2(CO)[C@H](CC[C@@H]3[C@@]4(C)CC[C@H](OC5OCC(O)C(O)C5OC5OC(CO)C(O)C(O)C5O)C(C)(C)[C@@H]4CC[C@]32C)[C@H]1O)CO (stereo not given in full)
inactive: [1] > 100 µM | [2] > 100 µM | [53] > 100 µM | [3] > 100 µM | [4] > 100 µM | [6] > 100 µM | [54] > 100 µM | [7] > 100 µM | [8] > 100 µM | [9] > 100 µM | [10] > 100 µM | [11] > 100 µM | [12] > 100 µM | [13] > 100 µM | [14] > 100 µM | [15] > 100 µM | [16] > 100 µM | [17] > 100 µM | [18] > 100 µM | [19] > 100 µM | [20] > 100 µM | [21] > 100 µM | [22] > 100 µM | [56] 92.3 µM | [57] > 100 µM | [23] > 100 µM | [24] > 100 µM | [25] > 100 µM | [27] > 100 µM | [28] > 100 µM | [29] > 100 µM | [30] > 100 µM | [31] > 100 µM | [32] > 100 µM | [33] > 100 µM | [34] > 100 µM | [35] > 100 µM | [36] > 100 µM | [37] > 100 µM | [38] > 100 µM | [58] > 100 µM | [59] > 100 µM | [39] > 100 µM | [40] > 100 µM | [41] > 100 µM | [42] > 100 µM | [43] > 100 µM | [44] > 100 µM | [45] > 100 µM | [46] > 100 µM | [47] > 100 µM | [48] > 100 µM | [49] > 100 µM | [50] > 100 µM | [51] > 100 µM | [52] > 100 µM
